Experimental data from ChEMBL document CHEMBL3856189, “Synthesis of novel diterpenoid analogs with in-vivo antitumor activity” (Eur J Med Chem, 2016).
pEC50, pIC50: −log10 of the molar value.

Legend:
[1] = Antiproliferative activity against human MDA-MB-231 cells after 96 hrs by SRB assay; type: functional, cell-based; details: MDA-MB-231, 96 h
[2] = Antiproliferative activity against human MCF7 cells after 96 hrs by SRB assay; type: functional, cell-based; details: MCF7, 96 h
[3] = Antiproliferative activity against human T47D cells after 96 hrs by SRB assay; type: functional, cell-based
[4] = Antiproliferative activity against human PC3 cells after 96 hrs by SRB assay; type: functional, cell-based; details: PC-3, 96 h
[5] = Antiproliferative activity against human DU145 cells after 96 hrs by SRB assay; type: functional, cell-based; details: DU-145, 96 h
[6] = Antiproliferative activity against human HCT116 cells after 96 hrs by SRB assay; type: functional, cell-based; details: HCT-116, 96 h
[7] = Antiproliferative activity against human HT-29 cells after 96 hrs by SRB assay; type: functional, cell-based; details: HT-29, 96 h
[8] = Antiproliferative activity against human HL60 cells after 96 hrs by SRB assay; type: functional, cell-based; details: HL-60, 96 h
[9] = Antiproliferative activity against HAF cells after 96 hrs by SRB assay; type: cell-based; details: Homo sapiens
[10] = Selectivity index, ratio of IC50 for HAF cells to IC50 for human MDA-MB-231 cells; type: functional
[11] = system: MCF7; assay: Selectivity index, ratio of IC50 for HAF cells to IC50 for human MCF7 cells; type: functional
[12] = system: T47D; assay: Selectivity index, ratio of IC50 for HAF cells to IC50 for human T47D cells; type: functional
[13] = system: PC-3; assay: Selectivity index, ratio of IC50 for HAF cells to IC50 for human PC3 cells; type: functional
[14] = system: DU-145; assay: Selectivity index, ratio of IC50 for HAF cells to IC50 for human DU145 cells; type: functional
[15] = system: HCT-116; assay: Selectivity index, ratio of IC50 for HAF cells to IC50 for human HCT116 cells; type: functional
[16] = Selectivity index, ratio of IC50 for HAF cells to IC50 for human HT-29 cells; type: functional
[17] = system: HL-60; assay: Selectivity index, ratio of IC50 for HAF cells to IC50 for human HL60 cells; type: functional
[18] = (§1) Inhibition of colony formation in human T47D cells after 7 days by crystal violet staining based assay; type: functional, cell-based; details: 168 h
[19] = system: T47D; assay: as §1; type: functional, cell-based
[20] = (§2) Antimigratory activity in human T47D cells assessed as inhibition of cell migration after 12 hrs by crystal violet staining based transwell migration assay; type: functional
[21] = system: T47D; assay: as §2; type: functional
[22] = system: T47D; assay: Induction of apoptosis in human T47D cells assessed as early apoptotic cells at 5 uM after 48 hrs by Annexin V-FITC/propidium iodide staining based flow cytometry (reference value: 1.75 %); type: functional
[23] = system: T47D; assay: Induction of apoptosis in human T47D cells assessed as late apoptotic cells at 5 uM after 48 hrs by Annexin V-FITC/propidium iodide staining based flow cytometry (reference value: 2.42 %); type: functional
[24] = system: T47D; assay: Induction of apoptosis in human T47D cells assessed as early apoptotic cells at 10 uM after 48 hrs by Annexin V-FITC/propidium iodide staining based flow cytometry (reference value: 1.75 %); type: functional
[25] = system: T47D; assay: Induction of apoptosis in human T47D cells assessed as late apoptotic cells at 10 uM after 48 hrs by Annexin V-FITC/propidium iodide staining based flow cytometry (reference value: 2.42 %); type: functional
[26] = system: T47D; assay: Induction of apoptosis in human T47D cells assessed as early apoptotic cells at 20 uM after 48 hrs by Annexin V-FITC/propidium iodide staining based flow cytometry (reference value: 1.75 %); type: functional
[27] = system: T47D; assay: Induction of apoptosis in human T47D cells assessed as late apoptotic cells at 20 uM after 48 hrs by Annexin V-FITC/propidium iodide staining based flow cytometry (reference value: 2.42 %); type: functional
[28] = Antitumor activity against human T47D cells xenografted in nude mouse assessed as tumor weight at 5 mg/kg/day, ip administered daily for 18 days measured every 3 days during compound dosing (reference value: 882 +/- 149 mg); type: functional
[29] = Antitumor activity against human T47D cells xenografted in nude mouse assessed as tumor volume at 5 mg/kg/day, ip administered daily for 18 days measured every 3 days during compound dosing (reference value: 1220 +/- 127 mm3); type: functional
[30] = system: Mus musculus; assay: Toxicity in nude mouse xenografted with human T47D cells assessed as body weight loss at 5 mg/kg/day, ip administered daily for 18 days measured every 3 days during compound dosing; type: organism-based; details: in vivo
[31] = system: Mus musculus; assay: Toxicity in nude mouse xenografted with human T47D cells assessed as diarrhoea at 5 mg/kg/day, ip administered daily for 18 days; type: organism-based; details: in vivo, 432 h
[32] = system: Mus musculus; assay: Toxicity in nude mouse xenografted with human T47D cells assessed as organ damage at 5 mg/kg/day, ip administered daily for 18 days; type: organism-based; details: in vivo, 432 h
[33] = system: Mus musculus; assay: Acute toxicity in nude mouse xenografted with human T47D cells assessed as mortality at 5 to 40 mg/kg/day, ip administered daily for 18 days measured on day 18 post last dose; type: organism-based; details: in vivo, 432 h
[34] = system: T47D; assay: Induction of apoptosis in human T47D cells assessed as early apoptotic cells at 20 uM after 48 hrs by Annexin V-FITC/propidium iodide staining based flow cytometry (reference value: 3.79 %); type: functional
[35] = system: T47D; assay: Induction of apoptosis in human T47D cells assessed as late apoptotic cells at 20 uM after 48 hrs by Annexin V-FITC/propidium iodide staining based flow cytometry (reference value: 3.04 %); type: functional
[36] = system: T47D; assay: Induction of apoptosis in human T47D cells assessed as early apoptotic cells at 40 uM after 48 hrs by Annexin V-FITC/propidium iodide staining based flow cytometry (reference value: 3.79 %); type: functional
[37] = system: T47D; assay: Induction of apoptosis in human T47D cells assessed as late apoptotic cells at 40 uM after 48 hrs by Annexin V-FITC/propidium iodide staining based flow cytometry (reference value: 3.04 %); type: functional
[38] = system: T47D; assay: Induction of apoptosis in human T47D cells assessed as early apoptotic cells at 80 uM after 48 hrs by Annexin V-FITC/propidium iodide staining based flow cytometry (reference value: 3.79 %); type: functional
[39] = system: T47D; assay: Induction of apoptosis in human T47D cells assessed as late apoptotic cells at 80 uM after 48 hrs by Annexin V-FITC/propidium iodide staining based flow cytometry (reference value: 3.04 %); type: functional

For CCNC(=O)c1cc2c(cc1OC)[C@@]1(C)CC[C@H](O)C(C)(C)[C@@H]1CC2, the pIC50 [1] was 5.12, the pIC50 [2] was less than 4.60 and the pIC50 [3] was less than 4.60.
COc1cc2c(cc1C(=O)Nc1ccccc1C)CC[C@H]1C(C)(C)[C@@H](O)CC[C@]21C showed a pIC50 [1] of 5.64, a pIC50 [2] of 5.45 and a pIC50 [3] of 6.29.
Compound COc1cc2c(cc1C(=O)Nc1cccc(Cl)c1)CC[C@H]1C(C)(C)[C@@H](O)CC[C@]21C has a pIC50 [1] of 6.00, a pIC50 [2] of 5.65 and a pIC50 [3] of 6.59.
With COc1cc2c(cc1C(=O)Nc1ccccc1N)CC[C@H]1C(C)(C)[C@@H](O)CC[C@]21C the pIC50 [1] was 5.37, the pIC50 [2] was 4.95 and the pIC50 [3] was 6.26.
In the case of COc1ccccc1NC(=O)c1cc2c(cc1OC)[C@@]1(C)CC[C@H](O)C(C)(C)[C@@H]1CC2, the pIC50 [1] was 6.70, the pIC50 [2] was 5.71 and the pIC50 [3] was 7.52.
Compound COc1cc2c(cc1C(=O)Nc1ccc(O)cc1)CC[C@H]1C(C)(C)[C@@H](O)CC[C@]21C has a pIC50 [1] of 5.72, a pIC50 [2] of 5.51 and a pIC50 [3] of 7.15.
COc1cc2c(cc1C(=O)Nc1ccc(F)cc1)CC[C@H]1C(C)(C)[C@@H](O)CC[C@]21C gave a pIC50 [1] of 5.62, a pIC50 [2] of 6.09 and a pIC50 [3] of 7.40.
COc1cc2c(cc1C(=O)Oc1ccccc1)CC[C@H]1C(C)(C)[C@@H](O)CC[C@]21C showed a pIC50 [1] of less than 4.60, a pIC50 [2] of less than 4.60 and a pIC50 [3] of less than 4.60.
For COc1cc([C@@H]2c3cc4c(cc3[C@H](O)[C@H]3COC(=O)[C@H]23)OCO4)cc(OC)c1OC [PODOFILOX], the pIC50 [1] was 6.92, the pIC50 [2] was 8.00 and the pIC50 [3] was 6.60. For the same compound, the pIC50 [4] was 7.30, the pIC50 [5] was 8.00 and the pIC50 [6] was 7.70. It also gave a pIC50 [7] of 7.70, a pIC50 [8] of 6.32 and a pIC50 [9] of 7.05. For the same compound, the “Ratio IC50” value [10] was 0.8, the “Ratio IC50” value [11] was 0.8 and the “Ratio IC50” value [12] was 0.8. The “Ratio IC50” value [13] was 0.8, the “Ratio IC50” value [14] was 0.8 and the “Ratio IC50” value [15] was 0.8. For the same compound, the “Ratio IC50” value [16] was 0.8, the “Ratio IC50” value [17] was 0.8 and the pEC50 [18] was 8.53. The Activity [19] was “Dose-dependent effect”, the pEC50 [20] was 5.05 and the Activity [21] was “Dose-dependent effect”. The Activity [22] was 4.97%, the Activity [23] was 4.45% and the Activity [24] was 7.47%. It also gave an Activity [25] of 6.98%, an Activity [26] of 11.86% and an Activity [27] of 7.21%. For the same compound, the Activity [28] was 200 mg, the Activity [29] was 407 mm3 and the Activity [30] was “Toxic”. For the same compound, the Activity [31] was “Toxic”, the Activity [32] was “Toxic” and the Activity [33] was “Toxic”.
With COc1cc2c(cc1C(=O)O)CC[C@H]1C(C)(C)C(O)CC[C@]21C (single isomer, unassigned) the pIC50 [1] was less than 4.60, the pIC50 [2] was less than 4.60 and the pIC50 [3] was less than 4.60.
COc1cc2c(cc1C(=O)Nc1ccccc1)CC[C@H]1C(C)(C)[C@@H](O)CC[C@]21C gave a pIC50 [1] of 5.35, a pIC50 [2] of 5.32 and a pIC50 [3] of 6.08. It also gave a pIC50 [4] of 5.60, a pIC50 [5] of 4.97 and a pIC50 [6] of 5.81. The pIC50 [7] was 5.61, the pIC50 [8] was 4.91 and the pIC50 [9] was 5.02. For the same compound, the “Ratio IC50” value [10] was 1.9, the “Ratio IC50” value [11] was 1.9 and the “Ratio IC50” value [12] was 1.9. For the same compound, the “Ratio IC50” value [13] was 1.9, the “Ratio IC50” value [14] was 1.9 and the “Ratio IC50” value [15] was 1.9. For the same compound, the “Ratio IC50” value [16] was 1.9, the “Ratio IC50” value [17] was 1.9 and the pEC50 [18] was 6.01. The Activity [19] was “Dose-dependent effect”, the pEC50 [20] was 4.42 and the Activity [21] was “Dose-dependent effect”. The Activity [34] was 2.25%, the Activity [35] was 3.54% and the Activity [36] was 3.33%. It also gave an Activity [37] of 6.97%, an Activity [38] of 4.7% and an Activity [39] of 7.72%.
With COc1cc2c(cc1C(=O)Nc1ccccc1F)CC[C@H]1C(C)(C)[C@@H](O)CC[C@]21C the pIC50 [1] was less than 4.60, the pIC50 [2] was less than 4.60 and the pIC50 [3] was less than 4.60.
